These results are taken from patent US10383866B2, “Alkyl dihydroquinoline sulfonamide compounds” (AMGEN INC., priority 2015, dated 2019).

For one series, the target named is T1, human Nav1.7 (Homo sapiens, UniProt Q15858).
T1 construct: expressed in transfected cells; host or cells: HEK 293
Briefly: Nav 1.7 In Vitro PX Assay (PatchXpress whole cell voltage clamp, partially inactivated state). The class given is cell-based. The following applies: HEK 293 cells stably transfected with human Nav1.7, holding potential yielding 20 to 50% inactivation, read-out: hNav1.7 PX IC50. As to the method: Nav 1.7 In Vitro PX Assay
HEK 293 cells stably transfected with human Nav1.7 were recorded in whole cell voltage clamp mode with the PatchXpress automated electrophysiology system (Molecular Devices, LLC, Sunnyvale, Calif.). Compound effects were measured on a partially inactivated state of the sodium channel Cells were clamped to a holding potential yielding 20 to 50% inactivation. To elicit sodium current, channels were activated by pulsing to −10 mV for 20 msec. This voltage protocol was repeated at a rate of 0.1 Hz throughout the experiment. A single concentration of test compound was applied to cells for a duration of 3 minutes. Peak sodium current was measured at the end of the compound addition period to determine percent inhibition. Three to five cells were tested per concentration, and IC50 curves were fitted to percent inhibition as a function of concentration.

The target of a further series is T2, human PXR (Homo sapiens, UniProt O75469).
T2 sequence (O75469 1-434): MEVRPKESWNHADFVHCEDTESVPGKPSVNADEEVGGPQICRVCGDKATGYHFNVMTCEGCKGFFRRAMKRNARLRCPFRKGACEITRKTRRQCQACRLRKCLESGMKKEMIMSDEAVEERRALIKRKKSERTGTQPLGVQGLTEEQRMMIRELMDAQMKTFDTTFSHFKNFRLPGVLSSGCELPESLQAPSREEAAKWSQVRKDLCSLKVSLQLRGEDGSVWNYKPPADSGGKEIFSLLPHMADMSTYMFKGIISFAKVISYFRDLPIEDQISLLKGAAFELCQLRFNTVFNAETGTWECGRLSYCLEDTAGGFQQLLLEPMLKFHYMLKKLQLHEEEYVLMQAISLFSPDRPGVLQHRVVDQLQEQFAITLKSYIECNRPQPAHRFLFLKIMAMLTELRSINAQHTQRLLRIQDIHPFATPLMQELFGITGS
Briefly: Human PXR @ 2 uM POC. The class given is in vitro ADME.

The target in the next series is T3, hNav1.7 (Homo sapiens, UniProt Q15858).
T3 construct: expressed in transfected cells; host or cells: HEK 293
In words: Nav 1.7 IWQ In Vitro Assay (IonWorks Quattro population patch-clamp). The format is cell-based. The following applies: HEK 293 cells stably transfected with Nav 1.7, 26th pulse to -20 mV. On the procedure: Nav 1.7 or Nav 1.5 IWQ In Vitro Assay
HEK 293 Cells stably transfected with either Nav 1.7 or Nav 1.5 were recorded in population patch-clamp mode with the IonWorks® Quattro automated electrophysiology system in accordance with the manufacturer's specifications (Molecular Devices, LLC, Sunnyvale, Calif.). Sodium channel currents were measured in response to a train of depolarizations that induced successively greater inactivation.
Cells were held at −110 mV for three seconds (Nav 1.7) or half a second (Nav 1.5) from a holding voltage of −15 mV, then put through a series of 26 pulses of 150 msec duration to −20 mV at a frequency of 5 Hz. Cells were then left unclamped for a period of 3 to 8 minutes while a single concentration of test compound was added. Cells were then reclamped and put through the same voltage protocol. Current at the end of the 26th pulse to −20 mV was subtracted from the peak current evoked by the 26th pulse to −20 mV to correct for leak current. Percent block was calculated for each concentration in duplicate, and IC50 curves were fitted to percent block as a function of concentration.
On the technique in general: The patch-clamp technique gives a direct electrical read-out from membranes.

A short description of another series: HLM in vitro. The format is in vitro ADME, human.

T1 sequence (Q15858 whole entry): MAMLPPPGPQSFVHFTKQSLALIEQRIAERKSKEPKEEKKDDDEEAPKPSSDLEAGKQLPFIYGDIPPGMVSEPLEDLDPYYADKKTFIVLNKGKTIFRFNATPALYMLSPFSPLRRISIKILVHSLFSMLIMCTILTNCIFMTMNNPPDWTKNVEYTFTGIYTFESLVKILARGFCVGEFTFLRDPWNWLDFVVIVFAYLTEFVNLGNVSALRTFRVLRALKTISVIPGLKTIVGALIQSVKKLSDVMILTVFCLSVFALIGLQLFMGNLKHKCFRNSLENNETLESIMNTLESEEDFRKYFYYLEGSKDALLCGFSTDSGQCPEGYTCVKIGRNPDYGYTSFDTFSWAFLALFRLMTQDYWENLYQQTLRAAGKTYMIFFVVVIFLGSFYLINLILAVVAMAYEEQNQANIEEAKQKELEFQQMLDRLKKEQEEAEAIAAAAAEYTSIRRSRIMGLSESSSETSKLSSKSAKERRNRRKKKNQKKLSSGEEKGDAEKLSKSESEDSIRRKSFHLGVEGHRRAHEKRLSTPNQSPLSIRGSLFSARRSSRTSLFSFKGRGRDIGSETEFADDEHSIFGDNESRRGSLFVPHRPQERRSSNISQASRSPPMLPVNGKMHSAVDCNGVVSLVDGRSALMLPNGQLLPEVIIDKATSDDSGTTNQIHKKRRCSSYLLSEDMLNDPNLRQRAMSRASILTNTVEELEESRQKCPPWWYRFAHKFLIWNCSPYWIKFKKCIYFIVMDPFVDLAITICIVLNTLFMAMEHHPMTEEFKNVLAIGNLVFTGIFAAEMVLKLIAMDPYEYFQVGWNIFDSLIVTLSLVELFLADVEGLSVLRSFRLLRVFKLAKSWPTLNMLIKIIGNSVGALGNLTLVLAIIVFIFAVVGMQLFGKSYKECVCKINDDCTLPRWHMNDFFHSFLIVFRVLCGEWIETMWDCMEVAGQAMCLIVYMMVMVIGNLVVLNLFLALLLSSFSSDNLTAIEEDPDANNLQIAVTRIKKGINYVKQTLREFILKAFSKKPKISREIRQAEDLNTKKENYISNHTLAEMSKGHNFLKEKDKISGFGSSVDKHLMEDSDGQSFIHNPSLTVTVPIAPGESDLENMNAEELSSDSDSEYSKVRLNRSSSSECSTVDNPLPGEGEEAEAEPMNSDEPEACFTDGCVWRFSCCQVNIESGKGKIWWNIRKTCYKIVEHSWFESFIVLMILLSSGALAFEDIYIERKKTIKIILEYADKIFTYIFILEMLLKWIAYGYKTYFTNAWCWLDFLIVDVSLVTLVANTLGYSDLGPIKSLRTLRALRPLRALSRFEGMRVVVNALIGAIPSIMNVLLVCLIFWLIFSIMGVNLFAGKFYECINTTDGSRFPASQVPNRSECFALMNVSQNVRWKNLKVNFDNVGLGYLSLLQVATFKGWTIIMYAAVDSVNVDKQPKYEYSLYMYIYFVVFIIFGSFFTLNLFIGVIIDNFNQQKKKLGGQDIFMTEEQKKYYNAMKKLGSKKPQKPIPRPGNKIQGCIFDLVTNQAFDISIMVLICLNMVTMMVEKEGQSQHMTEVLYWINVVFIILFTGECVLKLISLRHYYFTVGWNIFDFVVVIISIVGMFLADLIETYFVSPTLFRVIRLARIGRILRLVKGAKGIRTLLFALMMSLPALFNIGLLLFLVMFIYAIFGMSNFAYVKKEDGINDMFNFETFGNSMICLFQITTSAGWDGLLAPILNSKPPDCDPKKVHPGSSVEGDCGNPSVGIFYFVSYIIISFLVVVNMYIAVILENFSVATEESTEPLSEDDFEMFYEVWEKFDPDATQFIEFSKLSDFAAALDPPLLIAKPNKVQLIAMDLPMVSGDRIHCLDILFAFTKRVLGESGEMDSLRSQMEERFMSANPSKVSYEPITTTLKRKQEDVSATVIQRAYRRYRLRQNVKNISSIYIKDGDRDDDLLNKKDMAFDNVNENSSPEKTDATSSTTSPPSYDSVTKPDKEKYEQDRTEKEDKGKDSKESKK
T3 sequence (Q15858 whole entry): as above

For `COc1cc(CCC(F)(F)F)c(F)cc1-n1c(=O)ccc2cc(S(=O)(=O)Nc3ccon3)ccc21` (atropisomer, axis not shown; (P)) [Example 1, (P)-1-(5-fluoro-2-methoxy-4-(3,3,3-trifluoropropyl)phenyl)-N-(isoxazol-3-yl)-2-oxo-1,2-dihydroquinoline-6-sulfonamide], the results for the IC50 on human Nav1.7 and on hNav1.7 were 0.32 µM and 0.002 µM, respectively. Moreover, the “human PXR @ 2 uM POC S” value at human PXR was 0.22%. Further, in the series “HLM in vitro”, the HLM in vitro was <14.0 [2] μL/(min · mg).

On to `COc1cc(CCC(F)(F)F)c(Cl)cc1-n1c(=O)ccc2cc(S(=O)(=O)Nc3ccon3)ccc21` (atropisomer, axis not shown; (P)) [Example 2, (P)-1-(5-chloro-2-methoxy-4-(3,3,3-trifluoropropyl)phenyl)-N-(isoxazol-3-yl)-2-oxo-1,2-dihydroquinoline-6-sulfonamide], for which the IC50 on human Nav1.7 came out at 0.08 µM; on hNav1.7, 0.005 µM. Besides, at human PXR, the “human PXR @ 2 uM POC S” value is reported as 2.38%. This compound also showed an HLM in vitro in “HLM in vitro” of less than 14.0 µL/min/mg.

In the case of `COc1cc(CCC(F)(F)F)c(F)cc1-n1c(=O)ccc2cc(S(=O)(=O)Nc3cccnn3)ccc21` (atropisomer, axis not shown; (P)) [Example 3, (P)-1-(5-fluoro-2-methoxy-4-(3,3,3-trifluoropropyl)phenyl)-2-oxo-N-(Pyridazin-3-yl)-1,2-dihydroquinoline-6-sulfonamide], the IC50 on human Nav1.7 came out at 0.98 µM; against hNav1.7, 0.002 µM. In addition, the “human PXR @ 2 uM POC S” value at human PXR is reported as 3.20%. In the series “HLM in vitro”, this compound had an HLM in vitro of less than 14.0 µL/min/mg.

`COc1cc(CCCC(F)(F)F)c(F)cc1-n1c(=O)ccc2cc(S(=O)(=O)Nc3ccon3)ccc21` (atropisomer, axis not shown; (P)) [Example 5, (P)-1-(5-fluoro-2-methoxy-4-(4,4,4-trifluorobutyl)phenyl)-N-(isoxazol-3-yl)-2-oxo-1,2-dihydroquinoline-6-sulfonamide]: the IC50 at human Nav1.7 is 0.87 µM; at hNav1.7, 0.002 µM. Besides, at human PXR, the “human PXR @ 2 uM POC S” value stood at 1.87%. The compound further gave an HLM in vitro in the series “HLM in vitro” of less than 14.0 µL/min/mg.

Regarding `COc1cc(CC(F)(F)F)c(F)cc1-n1c(=O)ccc2cc(S(=O)(=O)Nc3ccon3)ccc21` (atropisomer, axis not shown; (P)) [Example 6B, (P)-1-(5-fluoro-2-methoxy-4-(2,2,2-trifluoroethyl)phenyl)-N-(isoxazol-3-yl)-2-oxo-1,2-dihydroquinoline-6-sulfonamide], the IC50 at human Nav1.7 amounted to 0.0844 µM; against hNav1.7, 0.0053 µM. Further, the “human PXR @ 2 uM POC S” value on human PXR is reported as −2.42%. This compound displayed an HLM in vitro in “HLM in vitro” of less than 14.0 µL/min/mg.

For the compound `COc1cc(C[C@@H](C)C(F)(F)F)c(F)cc1-n1c(=O)ccc2cc(S(=O)(=O)Nc3ccon3)ccc21` (racemic) [Example 4, (P)-1-(5-fluoro-2-methoxy-4-(3,3,3-trifluoro-2-methylpropyl)phenyl)-N-(isoxazol-3-yl)-2-oxo-1,2-dihydroquinoline-6-sulfonamide], the values for the IC50 at human Nav1.7 and on hNav1.7 were 0.72 µM and 0.012 µM, respectively. The “human PXR @ 2 uM POC S” value at human PXR was −0.04%. The HLM in vitro in “HLM in vitro” was less than 14.0 µL/min/mg.

For `COc1cc(CC(F)(F)F)c(F)cc1-n1c(=O)ccc2cc(S(=O)(=O)Nc3ccon3)ccc21` (racemic) [Example 6A, 1-(5-fluoro-2-methoxy-4-(2,2,2-trifluoroethyl)phenyl)-N-(isoxazol-3-yl)-2-oxo-1,2-dihydroquinoline-6-sulfonamide], the IC50 on human Nav1.7 came to 0.32 µM; at hNav1.7, 0.00178 µM. Also, at human PXR, the “human PXR @ 2 uM POC S” value was −1.12%. In the series “HLM in vitro”, this compound displayed an HLM in vitro of less than 14.0 µL/min/mg.

Broadly, the IC50 is the concentration needed to halve the response being measured.
